Experiments:
[1] = Stability of conjugates in Simulated Intestinal Fluid (SIF); assay type: in vitro ADME; conditions: simulated intestinal fluid pH 6.7 with pancreatin, 1 μM, 37° C.
In short: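 Conjugates at 1 μM (from 1 mM DMSO stock) were incubated with agitation at 37° C. in freshly made SIF: FaSSIF powder plus pancreatin in pH 6.7 phosphate buffer. Aliquots taken at T0 and at regular intervals were quenched with 1 volume acetonitrile, and LC/MS gave degradation rates.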

[2] = tested on: E. coli BL21(DE3); experiment: Cell-based assay with ClbP with LCMS, ClbP negative strain; conditions: 10 μM compound, 37° C., 20 h
In short: (§1)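 Compound (10 μM final) incubated 20 h at 37° C, aerobically, with 1:40-diluted overnight cultures of ClbP-positive E. coli or negative BL21(DE3), in duplicate, alongside uninoculated LB. Remaining parent quantified by LC-MS/MS (MRM) after acetonitrile quench, expressed as percent of media-alone.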

[3] = Stability of conjugates in Simulated Gastric Fluid (SGF); assay type: in vitro ADME; conditions: simulated gastric fluid pH 1.6 with pepsin, 1 μM, 37° C.
In short: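 Compounds at 1 μM (from 1 mM DMSO stock) were incubated at 37°C in simulated gastric fluid, NaCl pH 1.6 with FaSSIF powder and 0.1 mg/mL pepsin. Aliquots taken at T0 and regular intervals were quenched with an equal volume of acetonitrile and analysed by LC/MS for degradation rate.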

[4] = tested on: E. coli CFT073 ATCC 700928 and/or E. coli Nissle 1917; experiment: Cell-based assay with ClbP with LCMS, ClbP positive strain; conditions: for % Remaining in ClbP Positve Relative to Media-Only: ClbP-encoding E. coli, 10 μM compound, 37° C., 20 h
In short: as §1

[5] = In vitro Colonic Material Stability Assay; assay type: in vitro ADME; conditions: for Assay 3 (% Remaining at 24 h): colonic material slurry, anaerobic, 1 or 10 μM; for Selective delivery to the colon (conclusion from Table 2): from SGF, SIF and colonic material stability
In short: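 Compounds were added at 1 or 10 μM final to colonic material slurry (6.7 μL of 15% w/v slurry per 1 mL YCFAC or similar medium). Samples taken at 0–2880 min were acetonitrile-quenched and the remaining compound quantified by LC/MS.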

SMILES	Assay 2 (SIF) (% @ Remaining 4 hours) [1]	% Remaining in ClbP Negative Relative to Media-Only [2]	Assay 1 (SGF) (% Remaining @ 1 hours) [3]	% Remaining in ClbP Positve Relative to Media-Only [4]	Assay 3 (% Remaining at 24 h) [5]	Selective delivery to the colon (conclusion from Table 2) [5]	Difference between the ClbP Positive and ClbP Negative release profiles ([4]; conclusion from Table 4)
CCCCCCCCCCCCCC(=O)N[C@H](CC(N)=O)C(=O)N[C@@H](C)CCC(=O)OC [Example 21, Methyl (S)-4-((R)-4-amino-4-oxo-2-tetradecanamidobutanamido)pentanoate]	C (>75% of the tested compound remaining)	− (>75% compound remaining in the 20 μM WT ClbP reaction relative to the no-enzyme control)	C (>75% of the tested compound remaining)	+ (between 25-75% compound remaining in the 20 μM WT ClbP reaction relative to the no-enzyme control)	B (25-75% of the tested compound remaining)	can be selectively delivered to the colon	
CCCCCCCCCCCCCC(=O)N[C@H](CC(N)=O)C(=O)Nc1ccc(COC)cc1 [Example 22, (R)—N1-(4-(methoxymethyl)phenyl)-2-tetradecanamidosuccinamide]	C (>75% of the tested compound remaining)	− (>75% compound remaining in the 20 μM WT ClbP reaction relative to the no-enzyme control)	C (>75% of the tested compound remaining)	− (>75% compound remaining in the 20 μM WT ClbP reaction relative to the no-enzyme control)	A (<25% of the tested compound remaining)	can be selectively delivered to the colon	
CCCCCCCC(=O)N[C@H](CC(N)=O)C(=O)NCCN(C)C(=O)Oc1ccc2c(C)cc(=O)oc2c1 [Example 70, 4-methyl-2-oxo-2H-chromen-7-yl (R)-(2-(4-amino-2-octanamido-4-oxobutanamido)ethyl)(methyl)carbamate]	C (>75% of the tested compound remaining)	− (>75% compound remaining in the 20 μM WT ClbP reaction relative to the no-enzyme control)	C (>75% of the tested compound remaining)	+ (between 25-75% compound remaining in the 20 μM WT ClbP reaction relative to the no-enzyme control)	C (>75% of the tested compound remaining)		particularly favorable difference
